This note sets out measurements from ChEMBL document CHEMBL1201862, “PubChem BioAssay data set” (2004).

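Assay format: 96-well plates, 48-hour exposure. Here, GI50 denotes the concentration required for 50% inhibition of growth.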 Calls of active or inactive are those of the source. Cut-off read from the data, not from the text of the source: active = GI50 up to about 1.1 µM and inactive = higher.

Some test systems named below: DU-145; Hs-578T; MDA-MB-231; MDA-N; PC-3; LXFL 529; RXF 631; SNB-78; BT-549.
Common to all, as to experiment: DTP human tumour cell line panel, 48 h

The term GI50 denotes the concentration giving 50% growth inhibition. For the compound `COc1cc(N/N=C/C#N)cc(OC)c1OC`, the GI50 in the experiment with DU-145, in the experiment on Hs-578T, in the experiment on MDA-MB-231, in the experiment with MDA-N and with PC-3 was > 10 µM (inactive) in each case.

As for `CCOC(=O)[C@H]1Nc2c(cccc2[N+](=O)[O-])C2c3ccccc3CC21` (some centres undefined), the GI50 with LXFL 529, in the experiment with RXF 631 and with SNB-78 was > 100 µM (inactive) each time.

With `Cc1sc(N)c(S(=O)(=O)c2ccccc2)c1C`, the GI50 in the experiment with BT-549, in the experiment on DU-145, in the experiment on Hs-578T, in the experiment on MDA-MB-231 and in the experiment on PC-3 was > 100 µM (inactive) in each case.

For `COC(=O)CC1(CNC(=O)OCc2ccccc2)OCCO1`, the GI50 in the experiment on BT-549, in the experiment with DU-145, with MDA-MB-231, in the experiment on MDA-N and in the experiment with PC-3 was > 100 µM (inactive) in each case.

Consider `CN(C)CCCCN1CCc2c(n(C)c3ccccc23)C1=O`, for which the GI50 with BT-549 was 45.4 µM (inactive); with Hs-578T it was 33 µM (inactive); with MDA-MB-231, 29.5 µM (inactive); in the experiment on MDA-N, 19.3 µM (inactive).

As for `O=C(CCC(=O)Nc1ccccc1C(F)(F)F)N/N=C1\C(=N\NC(=O)CCC(=O)Nc2ccccc2C(F)(F)F)C(c2ccc3c(c2)OCO3)Oc2ccccc21` (centres undefined), the GI50 with RXF 631 is 14 µM (inactive); with SNB-78 it was 25.8 µM (inactive).

In the case of `COC(=O)c1ccc2c(c1)CCN2C(=O)c1cc2c(cc1Br)OCO2`, the GI50 was 7.18 µM (inactive) in the experiment on BT-549; 1.71 µM (inactive) in the experiment on DU-145; 0.658 µM (active) in the experiment with Hs-578T; 1.65 µM (inactive) in the experiment with MDA-MB-231; 0.0834 µM (active) in the experiment on MDA-N; 0.573 µM (active) with PC-3.

For `N#Cc1cc2c(cc1C#N)/C(=N\c1cccc(N)n1)N/C2=N\c1cccc(N)n1`, the GI50 in the experiment on BT-549 was 32.2 µM (inactive); with DU-145 it was > 100 µM (inactive); in the experiment with Hs-578T, 18.5 µM (inactive); with MDA-MB-231, 15.2 µM (inactive); in the experiment with MDA-N, 20.3 µM (inactive); in the experiment with PC-3, 17.9 µM (inactive).

As for `C=C1C(=O)C[C@@]23CCC[C@@]12CC(O)C3` (some centres undefined), the GI50 in the experiment on SNB-78 was 28.2 µM (inactive).

Regarding `COc1ccc2cc(/C=N/NC(=O)Nc3ccccc3)ccc2c1`, the GI50 in the experiment on BT-549 is > 100 µM (inactive); in the experiment on DU-145, > 100 µM (inactive); in the experiment on Hs-578T, > 100 µM (inactive); in the experiment on MDA-MB-231 it was 81.3 µM (inactive); in the experiment on MDA-N it was > 100 µM (inactive); in the experiment with PC-3, > 100 µM (inactive).

With `[N-]=[N+]=CC(=O)OCC(N)C(=O)O` (centres undefined), the GI50 in the experiment with SNB-78 is 586 µM (inactive).

`CCOC(=O)c1ccc(N[C@@H]2c3cc4c(cc3C(c3cc(OC)c(O)c(OC)c3)[C@H]3C(=O)OCC32)OCO4)cc1O` (some centres undefined): in the experiment on SNB-78, the GI50 was 1.77 µM (inactive).

As for `COc1ccc2c(c1)/C(=C/CCN(C)C)c1ccccc1S2`, the GI50 with DU-145 was > 100 µM (inactive); in the experiment on Hs-578T, 33.4 µM (inactive); in the experiment with MDA-MB-231 it was 59 µM (inactive); with MDA-N, 43.3 µM (inactive); with PC-3, 75.9 µM (inactive).

For the compound `Nc1nc(SCCC/C=C/I)nc2c1ncn2C1OC(CO)C(O)C1O` (centres undefined), in the experiment with SNB-78, the GI50 was > 202 µM (inactive).

`CC(=O)OCC1OC(n2cc(F)c(=O)[nH]c2=O)C(NC(=O)OCc2ccccc2)C(OC(C)=O)C1OC(C)=O` (centres undefined): the GI50 in the experiment on SNB-78 is > 100 µM (inactive).

Consider `O=c1cc(N2CCCC2)[nH]c(=O)n1-c1cccc(C(F)(F)F)c1`, for which the GI50 in the experiment with BT-549, in the experiment on DU-145, in the experiment with Hs-578T, with MDA-MB-231, in the experiment on MDA-N and in the experiment with PC-3 was > 100 µM (inactive) throughout.

As for `Nc1ncnc2c1ncn2[C@@H]1O[C@H](COP(=O)(O)O)[C@@H](O)[C@@H]1O`, the GI50 with SNB-78 was > 50 µM (inactive).

`CCCCCC/C(CC(=O)CCC(=O)NCCc1ccccc1)=N\NC(=O)c1ccc2ccccc2c1O`: the GI50 is 42.1 µM (inactive) in the experiment with LXFL 529, 61.2 µM (inactive) in the experiment on RXF 631 and 67.3 µM (inactive) in the experiment with SNB-78.

`Cc1ccc(-c2c(C#N)c(-c3ccc([N+](=O)[O-])cc3)c(C#N)c(=O)n2NS(=O)(=O)c2ccccc2)cc1`: the GI50 is 10.4 µM (inactive) in the experiment on BT-549; 0.589 µM (active) in the experiment with Hs-578T; 38.7 µM (inactive) in the experiment with MDA-MB-231; 84.3 µM (inactive) in the experiment with MDA-N; 25.3 µM (inactive) in the experiment with PC-3.

For the compound `COC(=O)c1c(-c2ccccc2)c2sc3ccccc3n2c1N`, the GI50 with BT-549 was > 100 µM (inactive); with DU-145, 57.5 µM (inactive); with MDA-MB-231, 87.1 µM (inactive); in the experiment with MDA-N, 50.4 µM (inactive); with PC-3 it was 31.1 µM (inactive).

`C/C(=N\NC(=S)N1CCN(c2ccccn2)CC1)c1cccc(C)n1`: the GI50 was 5.26 µM (inactive) in the experiment with BT-549; 2.85 µM (inactive) in the experiment with DU-145; 12.6 µM (inactive) in the experiment with Hs-578T; < 0.01 µM (active) with MDA-MB-231; 3.14 µM (inactive) in the experiment on MDA-N; < 0.01 µM (active) with PC-3.

With `CCCCCCCCCCC(C)CCCCCCC(=O)O` (centres undefined), the GI50 in the experiment on LXFL 529, in the experiment on RXF 631 and in the experiment on SNB-78 was > 100 µM (inactive) each time.

With `Cc1ccc(S(=O)(=O)N/N=C/c2c(O)ccc3ccccc23)cc1`, the GI50 in the experiment on BT-549 was 23.8 µM (inactive); with DU-145, 29 µM (inactive); with Hs-578T it was 17.5 µM (inactive); with MDA-MB-231 it was 21.9 µM (inactive); in the experiment on MDA-N it was 27.6 µM (inactive); in the experiment with PC-3 it was 20.7 µM (inactive).

In the case of `CCCCC(C)C1CCC2(C)C=CC(=O)C(C)=C2C1O` (centres undefined), in the experiment with SNB-78, the GI50 was > 100 µM (inactive).

Regarding `CS(=O)(=O)OCC1=C(COS(C)(=O)=O)C(=O)c2c(O)ccc(O)c2C1=O`, the GI50 in the experiment with LXFL 529, in the experiment with RXF 631 and with SNB-78 was > 100 µM (inactive) throughout.

Regarding `CC1(C)CCc2cc3c(cc2O1)OC(C)(C)CC3=O`, the GI50 in the experiment on LXFL 529 is 81.5 µM (inactive).

Regarding `O=C(O)c1nc2ccc(C(F)(F)F)cc2[nH]c1=O`, the GI50 in the experiment with BT-549, in the experiment on DU-145, in the experiment with Hs-578T, in the experiment on MDA-MB-231, in the experiment with MDA-N and in the experiment with PC-3 was > 100 µM (inactive) throughout.

In the case of `C#Cc1c(C)c(/C=C/C(C)=C\C(=O)OC)n(C)c1C`, the GI50 is 94 µM (inactive) in the experiment on LXFL 529 and > 100 µM (inactive) in the experiment with SNB-78.

With `COc1ccc(C23C(=O)c4ccccc4N2O[C@H]2C(=O)N(c4ccccc4)C(=O)[C@H]23)cc1` (some centres undefined), the GI50 in the experiment on LXFL 529, with RXF 631 and in the experiment with SNB-78 was > 100 µM (inactive) in each case.

As for `Nc1ccc2[nH]c3c(-c4ccccc4)nccc3c2c1`, the GI50 with SNB-78 was > 55 µM (inactive).

Regarding `O=C1C2=C(c3ccccc31)C(c1ccc(Cl)cc1)NC(S)=N2` (centres undefined), the GI50 with LXFL 529 was 14.8 µM (inactive).

Regarding `CCN(CC)c1ccc2c(c1)Oc1ccc(N(C(C)=O)c3ccccc3)cc1C21OC(=O)c2ccccc21` (centres undefined), the GI50 in the experiment on BT-549 is 98.2 µM (inactive); with DU-145 it was > 100 µM (inactive); in the experiment on Hs-578T, 58.3 µM (inactive); in the experiment on MDA-MB-231, > 100 µM (inactive); with MDA-N it was 32.6 µM (inactive); in the experiment on PC-3 it was 13.1 µM (inactive).

With `CCCC(=O)Nc1cc(/C=C/C(=O)N2CC(CCl)c3c2cc(OCc2ccccc2)c2[nH]cc(C)c32)n(C)c1` (centres undefined), the 50% growth inhibitory concentration (GI50) was 0.159 µM (active) with BT-549; 0.0194 µM (active) with DU-145; 0.14 µM (active) in the experiment on Hs-578T; 0.247 µM (active) in the experiment with MDA-MB-231; 0.249 µM (active) in the experiment with MDA-N; 0.103 µM (active) with PC-3.

Consider `COC(=O)C1=C(C(=O)OC)C(N(C)C)C(C(=O)OC)=C(C(=O)OC)S1`, for which the GI50 with BT-549, in the experiment on DU-145, with Hs-578T, in the experiment with MDA-MB-231, in the experiment with MDA-N and with PC-3 was > 100 µM (inactive) in each case.

On to `Cc1ccc2c3c4c(ccc13)C(C)(C)OC4=C(C(C)C)C2=O`, for which the GI50 in the experiment with BT-549 is 26.5 µM (inactive); in the experiment with DU-145 it was > 100 µM (inactive); in the experiment on Hs-578T it was 8.36 µM (inactive); in the experiment on MDA-MB-231, > 100 µM (inactive); in the experiment with MDA-N, > 100 µM (inactive); with PC-3, 14.5 µM (inactive).

Take `CC1CNC(NS(=O)(=O)c2cc(C(=O)Nc3ccc(F)cc3)c(Cl)cc2S)=NN1` (centres undefined): the GI50 in the experiment on BT-549 is > 100 µM (inactive); with DU-145 it was > 100 µM (inactive); in the experiment on MDA-MB-231 it was 82.2 µM (inactive); in the experiment on PC-3, 30.3 µM (inactive).

With `COC1=CC(=O)c2ccccc2C1(C)C1=NC(C)(C)CO1` (centres undefined), the GI50 in the experiment on LXFL 529 and in the experiment with RXF 631 was > 100 µM (inactive) each time.

Turning to `Cc1c2ccnc(-c3ccccc3)c2cc2c1[nH]c1ccccc12`, the GI50 with SNB-78 was 4.32 µM (inactive).

Consider `O=C(O)c1cc2c3c(c1)[C@H]1C=CC[C@H]1CN3CC1CC=CC21` (some centres undefined), for which the GI50 in the experiment on LXFL 529 and in the experiment with SNB-78 was > 100 µM (inactive) throughout.

With `CCCCCC1CC(C(C)=O)CN1c1ccc(F)cc1` (centres undefined), the GI50 was 32.1 µM (inactive) with LXFL 529 and 36.4 µM (inactive) with SNB-78.

`CC1C(O)C2(Oc3cc4c(c5c3[C@@H](CC5O)[C@H]2C)CCC2Cc3nc5c(nc3C[C@@]42C)CC2CCC3C4=C[C@H]6O[C@@]7(O[C@@](C)(CO)C[C@@H]7O)C(C)[C@@]6(O)[C@]4(C)[C@@H](O)CC3[C@]2(C)C5)OC1(C)C` (some centres undefined): the GI50 in the experiment on SNB-78 is 0.0494 µM (active).

Consider `O=NN(CCCl)C(=O)NC1CCSc2ccccc21` (centres undefined), for which the GI50 with SNB-78 is > 100 µM (inactive).

As to `COc1ccc(/C=N/NC(=O)NCCCN(C)C)cc1`, the GI50 with SNB-78 was > 100 µM (inactive).

As for `COc1cc(Nc2nc3ccc(C(F)(F)F)cc3nc2C(=O)O)cc(OC)c1OC`, the GI50 with BT-549 was 19.2 µM (inactive); with DU-145, 28.5 µM (inactive); with Hs-578T, 16.9 µM (inactive); with MDA-MB-231 it was 19.2 µM (inactive); with MDA-N, 19.3 µM (inactive); in the experiment with PC-3 it was 24.4 µM (inactive).
